Molecules are shown by their SMILES.

For orientation: Ki means a measure of affinity in units of concentration, obtained from inhibition or displacement. A lower Ki goes with tighter binding.

This assay has as its target Delta-type opioid receptor (Homo sapiens, UniProt P41143). The assay is described as follows: Displacement of [3H]DADLE from human delta opioid receptor expressed in CHO cells after 2 hrs by liquid scintillation counting. In general terms: Loss of bound radioactivity is the signal in a displacement assay; it reports binding, not function.

Chain of Delta-type opioid receptor (P41143 whole entry): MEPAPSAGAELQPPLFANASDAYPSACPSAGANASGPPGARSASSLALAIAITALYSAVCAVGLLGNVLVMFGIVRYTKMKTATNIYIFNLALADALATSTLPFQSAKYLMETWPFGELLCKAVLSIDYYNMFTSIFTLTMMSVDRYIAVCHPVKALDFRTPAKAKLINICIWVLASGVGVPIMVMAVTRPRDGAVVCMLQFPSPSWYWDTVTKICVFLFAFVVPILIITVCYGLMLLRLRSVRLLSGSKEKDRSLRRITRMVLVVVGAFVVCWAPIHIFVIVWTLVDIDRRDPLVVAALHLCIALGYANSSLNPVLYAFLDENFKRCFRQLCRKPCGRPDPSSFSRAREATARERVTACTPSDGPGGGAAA

`C[C@H]1C[C@H]2C[C@](c3cccc(O)c3)(CCN2CCc2ccccc2)C1` had an inhibition constant (Ki) of 260 nM. Then `C[C@H]1CC[C@@]2(c3cccc(O)c3)CCN(C)[C@@H]1C2`, with 139 nM. As to `CN1CC[C@]2(c3cccc(O)c3)C[C@@H](c3ccccc3)C[C@H]1C2`, the Ki came to 583 nM. Then `Oc1cccc([C@]23CCN(CCc4ccccc4)[C@H](C2)[C@H]2CCCC[C@@H]2C3)c1`, with 103 nM; and `Oc1cccc([C@@]23CCN(CCc4ccccc4)[C@H](C[C@@H](O)C2)C3)c1`, with 876 nM. `C[C@H]1CC[C@@]2(c3cccc(O)c3)CCN(CCc3ccccc3)[C@@H]1C2` registered an inhibition constant (Ki) of 126 nM. In the case of `C[C@H]1C[C@H]2C[C@](c3cccc(O)c3)(CCN2C)C1`, the Ki came out at 721 nM. To `Oc1cccc([C@@]23CCN(CCc4ccccc4)[C@@H](C[C@H](c4ccccc4)C2)C3)c1` belongs 318 nM.
